Data taken from patent US8497278B2, “Imidazo[1,2-a]pyridine compounds” (priority 2008, dated 2013).

Columns and labels:
[1] = test system: central benzodiazepine receptors; test: Central benzodiazepine receptor binding (test of Speth et al.); settings: 1000 nM of the compound
Procedure, shortened: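 Radioligand binding by the Speth et al. method. Specific binding is total minus nonspecific binding, the latter measured with excess unlabelled ligand. Compounds screened at 1.0E-09, 1.0E-07 and 1.0E-05 M in single determination; values given as percent inhibition at 1000 nM compound.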

[2] = target: T1, α2 subtype containing GABA-A receptors (Homo sapiens, UniProt P18507+P47869); test: Two-electrode voltage clamp electrophysiology in Xenopus oocytes, potentiation of GABA EC20 response, α2; format: cell-based; settings: 100 nM compound, read-out: Percentage of potentiation alpha2
T1 construct: expressed in transfected cells; host or cells: Xenopus laevis oocytes, cRNA injected
T1 sequence (P47869 29-451): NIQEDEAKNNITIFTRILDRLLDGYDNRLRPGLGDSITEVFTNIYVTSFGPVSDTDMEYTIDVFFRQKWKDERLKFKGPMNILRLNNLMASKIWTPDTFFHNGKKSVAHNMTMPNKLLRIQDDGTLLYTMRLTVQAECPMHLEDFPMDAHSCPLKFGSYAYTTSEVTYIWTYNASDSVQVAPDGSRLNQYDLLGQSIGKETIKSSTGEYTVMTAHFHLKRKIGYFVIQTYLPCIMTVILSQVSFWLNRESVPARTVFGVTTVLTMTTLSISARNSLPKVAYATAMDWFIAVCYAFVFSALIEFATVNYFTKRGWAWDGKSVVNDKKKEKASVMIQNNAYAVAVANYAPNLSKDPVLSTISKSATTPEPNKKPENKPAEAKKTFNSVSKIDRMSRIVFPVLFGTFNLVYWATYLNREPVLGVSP
T1 sequence (P28472 26-473 partner): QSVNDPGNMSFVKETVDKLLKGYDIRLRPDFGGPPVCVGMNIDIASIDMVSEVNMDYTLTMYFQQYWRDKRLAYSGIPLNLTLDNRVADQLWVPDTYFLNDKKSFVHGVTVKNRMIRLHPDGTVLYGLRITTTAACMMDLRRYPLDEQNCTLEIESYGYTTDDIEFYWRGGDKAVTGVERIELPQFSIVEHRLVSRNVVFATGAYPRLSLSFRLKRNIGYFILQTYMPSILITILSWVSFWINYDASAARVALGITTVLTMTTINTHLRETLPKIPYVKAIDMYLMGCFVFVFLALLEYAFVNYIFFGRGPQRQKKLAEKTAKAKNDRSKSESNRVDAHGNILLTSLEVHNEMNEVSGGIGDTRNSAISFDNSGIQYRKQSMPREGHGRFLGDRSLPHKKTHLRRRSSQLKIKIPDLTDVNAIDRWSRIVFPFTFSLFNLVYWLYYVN
T1 sequence (P18507 40-475): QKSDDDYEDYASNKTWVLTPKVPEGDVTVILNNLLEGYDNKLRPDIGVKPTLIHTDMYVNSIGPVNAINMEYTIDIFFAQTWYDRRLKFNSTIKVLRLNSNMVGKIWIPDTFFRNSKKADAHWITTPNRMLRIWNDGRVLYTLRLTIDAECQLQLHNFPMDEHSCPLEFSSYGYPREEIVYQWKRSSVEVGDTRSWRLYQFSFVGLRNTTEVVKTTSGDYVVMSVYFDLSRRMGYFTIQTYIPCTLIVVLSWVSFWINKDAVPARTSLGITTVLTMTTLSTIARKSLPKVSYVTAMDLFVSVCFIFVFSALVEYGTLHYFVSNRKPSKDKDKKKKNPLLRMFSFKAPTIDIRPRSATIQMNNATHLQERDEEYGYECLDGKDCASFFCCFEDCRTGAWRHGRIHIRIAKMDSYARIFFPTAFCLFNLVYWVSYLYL
Procedure, shortened: (§1)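 Potentiation of the GABA EC20 current by 100 nM compound is the read-out, recorded by two-electrode voltage clamp at −80 mV in oocytes carrying human α1, α2, α3 or α5 with β3 and γ2L. Baseline came from three 20-s applications of 60 μM GABA.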

[3] = target: T2, α1 subtype containing GABA-A receptors (Homo sapiens, UniProt P14867+P18507); test: Two-electrode voltage clamp electrophysiology in Xenopus oocytes, potentiation of GABA EC20 response, α1; format: cell-based; settings: 100 nM compound, read-out: Percentage of potentiation alpha1
T2 construct: expressed in transfected cells; host or cells: Xenopus laevis oocytes, cRNA injected
T2 sequence (P14867 28-456): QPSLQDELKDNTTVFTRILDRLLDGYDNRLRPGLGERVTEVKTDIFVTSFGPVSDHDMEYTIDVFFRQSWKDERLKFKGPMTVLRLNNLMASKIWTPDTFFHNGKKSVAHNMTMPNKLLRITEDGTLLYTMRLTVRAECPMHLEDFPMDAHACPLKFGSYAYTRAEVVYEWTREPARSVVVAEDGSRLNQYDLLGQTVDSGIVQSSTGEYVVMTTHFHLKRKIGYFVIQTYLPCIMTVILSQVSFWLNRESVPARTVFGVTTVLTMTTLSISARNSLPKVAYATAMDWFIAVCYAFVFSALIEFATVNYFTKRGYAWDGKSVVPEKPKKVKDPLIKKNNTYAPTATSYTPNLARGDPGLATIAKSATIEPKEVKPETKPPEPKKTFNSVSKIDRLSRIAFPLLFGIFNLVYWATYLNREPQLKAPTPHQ
T2 sequence (P28472 26-473 partner): as the sequence (P28472 26-473 partner) above
T2 sequence (P18507 40-475): as the sequence (P18507 40-475) above
Procedure, shortened: as §1

SMILES	% Inhibition at 1000 nM for CBZD [1]	activation at 0.1 µM [2] [%]	activation at 0.1 µM [3] [%]
Cc1ccc2nc(-c3ccc(F)cc3)c(CNc3nc(C)cc(Cl)n3)n2c1 [Compound 160, 4-chloro-N-((2-(4-fluorophenyl)-6-methylimidazo[1,2-a]pyridin-3-yl)methyl)-6-methylpyrimidin-2-amine]	++ (percentage of inhibition of central BZD site binding is greater than 80% in the presence of 1000 nM of the compound)	10 to 50	10 to 50
COc1ccc(NCc2c(-c3ccccc3)nc3ccc(Cl)cn23)nn1 [Compound 165, N-((6-chloro-2-phenylimidazo[1,2-a]pyridin-3-yl)methyl)-6-methoxypyridazin-3-amine]	++ (percentage of inhibition of central BZD site binding is greater than 80% in the presence of 1000 nM of the compound)	10 to 50	10 to 50
Cc1ccc(-c2nc3ccc(C)cn3c2CSc2nnc(C)s2)cc1 [Compound 179, 6-Methyl-3-(5-methyl-[1,3,4]thiadiazol-2-ylsulfanylmethyl)-2-p-tolyl-imidazo[1,2-a]pyridine]	++ (percentage of inhibition of central BZD site binding is greater than 80% in the presence of 1000 nM of the compound)	-10 to 10	-10 to 10
CN1CC[C@H](Oc2ccnc(NCc3c(-c4ccc(F)cc4)nc4ccc(Cl)cn34)n2)C1 [Compound 184, (S)—N-((6-chloro-2-(4-fluorophenyl)imidazo[1,2-a]pyridin-3-yl)methyl)-4-(1-methylpyrrolidin-3-yloxy)pyrimidin-2-amine]	++ (percentage of inhibition of central BZD site binding is greater than 80% in the presence of 1000 nM of the compound)	10 to 50	10 to 50
CC1(O)CCN(c2ccnc(NCc3c(-c4ccccc4)nc4ccc(Cl)cn34)n2)CC1 [Compound 187, 1-(2-((6-chloro-2-phenylimidazo[1,2-a]pyridin-3-yl)methylamino)pyrimidin-4-yl)-4-methylpiperidin-4-ol]	++ (percentage of inhibition of central BZD site binding is greater than 80% in the presence of 1000 nM of the compound)	-10 to 10	≤ -10
OC[C@H]1CCCN1c1ccnc(NCc2c(-c3ccccc3)nc3ccc(Cl)cn23)n1 [Compound 188, (R)-(1-(2-((6-chloro-2-phenylimidazo[1,2-a]pyridin-3-yl)methylamino)pyrimidin-4-yl)pyrrolidin-2-yl)methanol]	++ (percentage of inhibition of central BZD site binding is greater than 80% in the presence of 1000 nM of the compound)	≥ 50	≥ 50
OC1CCN(c2ccnc(NCc3c(-c4ccc(F)cc4)nc4ccc(Cl)cn34)n2)C1 (stereo not drawn) [Compound 189, 1-(2-((6-chloro-2-(4-fluorophenyl)imidazo[1,2-a]pyridin-3-yl)methylamino)pyrimidin-4-yl)pyrrolidin-3-ol]	++ (percentage of inhibition of central BZD site binding is greater than 80% in the presence of 1000 nM of the compound)	≥ 50	≥ 50
OC1CCN(c2cncc(Cc3c(-c4ccc(Cl)cc4)nc4ccccn34)n2)C1 (stereo not drawn) [Compound 191, 1-(6-((2-(4-chlorophenyl)imidazo[1,2-a]pyridin-3-yl)methyl)pyrazin-2-yl)pyrrolidin-3-ol]	++ (percentage of inhibition of central BZD site binding is greater than 80% in the presence of 1000 nM of the compound)	10 to 50	10 to 50
CN(CCO)c1cncc(Cc2c(-c3ccc(Cl)cc3)nc3ccccn23)n1 [Compound 192, 2-((6-((2-(4-chlorophenyl)imidazo[1,2-a]pyridin-3-yl)methyl)pyrazin-2-yl)(methyl)amino)ethanol]	++ (percentage of inhibition of central BZD site binding is greater than 80% in the presence of 1000 nM of the compound)	10 to 50	10 to 50
CNNc1cncc(Cc2c(-c3ccc(Cl)cc3)nc3ccccn23)n1 [Compound 193, 2-(4-chlorophenyl)-3-((6-(2-methylhydrazinyl)pyrazin-2-yl)methyl)imidazo[1,2-a]pyridine]	++ (percentage of inhibition of central BZD site binding is greater than 80% in the presence of 1000 nM of the compound)	10 to 50	10 to 50
Fc1ccc(-c2nc3ccc(Cl)cn3c2CNc2nccc(C3CCCN3)n2)cc1 (stereo not drawn) [Compound 195]	++ (percentage of inhibition of central BZD site binding is greater than 80% in the presence of 1000 nM of the compound)	≥ 50	≥ 50
CCNCc1ccnc(NCc2c(-c3ccc(F)cc3)nc3ccc(C)cn23)n1 [Compound 196, 4-((ethylamino)methyl)-N-((2-(4-fluorophenyl)-6-methylimidazo[1,2-a]pyridin-3-yl)methyl)pyrimidin-2-amine]	++ (percentage of inhibition of central BZD site binding is greater than 80% in the presence of 1000 nM of the compound)	≥ 50	≥ 50
Fc1ccc(-c2nc3ccc(Cl)cn3c2CNc2nccc(CN3CCCC3)n2)cc1 [Compound 198, N-((6-chloro-2-(4-fluorophenyl)imidazo[1,2-a]pyridin-3-yl)methyl)-4-(pyrrolidin-1-ylmethyl)pyrimidin-2-amine]	++ (percentage of inhibition of central BZD site binding is greater than 80% in the presence of 1000 nM of the compound)	≥ 50	≥ 50
Cc1nnc(Cc2c(-c3ccc(Cl)cc3)nc3ccccn23)o1 [Compound 204, 2-((2-(4-chlorophenyl)imidazo[1,2-a]pyridin-3-yl)methyl)-5-methyl-1,3,4-oxadiazole]	++ (percentage of inhibition of central BZD site binding is greater than 80% in the presence of 1000 nM of the compound)	10 to 50	-10 to 10
Cn1ccnc1Cc1c(-c2ccc(Cl)cc2)nc2ccccn12 [Compound 206, 2-(4-chlorophenyl)-3-((1-methyl-1H-imidazol-2-yl)methyl)imidazo[1,2-a]pyridine]	++ (percentage of inhibition of central BZD site binding is greater than 80% in the presence of 1000 nM of the compound)	≥ 50	≥ 50
Cn1ncnc1Cc1c(-c2ccc(Cl)cc2)nc2ccccn12 [Compound 207, 2-(4-Chlorophenyl)-3-((1-methyl-1H-1,2,4-triazol-5-yl)methyl)imidazo[1,2-a]pyridine]	++ (percentage of inhibition of central BZD site binding is greater than 80% in the presence of 1000 nM of the compound)	10 to 50	10 to 50
Cc1nn(C)nc1Cc1c(-c2ccc(Cl)cc2)nc2ccc(Cl)cn12 [Compound 229, 6-Chloro-2-(4-chlorophenyl)-3-((2,5-dimethyl-2H-1,2,3-triazol-4-yl)methyl)imidazo[1,2-a]pyridine]	++ (percentage of inhibition of central BZD site binding is greater than 80% in the presence of 1000 nM of the compound)	10 to 50	10 to 50
Cc1nnc(Cc2c(-c3ccc(Cl)cc3)nc3ccccn23)[nH]1 [Compound 233, 2-(4-chlorophenyl)-3-((5-methyl-4H-1,2,4-triazol-3-yl)methyl)imidazo[1,2-a]pyridine]	++ (percentage of inhibition of central BZD site binding is greater than 80% in the presence of 1000 nM of the compound)	≥ 50	10 to 50
Cc1nnc(Cc2c(-c3ccccc3)nc3ccc(Cl)cn23)[nH]1 [Compound 234, 6-chloro-3-((5-methyl-4H-1,2,4-triazol-3-yl)methyl)-2-phenylimidazo[1,2-a]pyridine]	++ (percentage of inhibition of central BZD site binding is greater than 80% in the presence of 1000 nM of the compound)	≥ 50	10 to 50
CN(C)CCNC1=CC(=O)N(Cc2c(-c3ccc(Cl)cc3)nc3ccccn23)C1 [Compound 237, 1-((2-(4-chlorophenyl)imidazo[1,2-a]pyridin-3-yl)methyl)-4-(2-(dimethylamino)ethylamino)-1H-pyrrol-2(5H)-one]	++ (percentage of inhibition of central BZD site binding is greater than 80% in the presence of 1000 nM of the compound)	10 to 50	-10 to 10
CN1CCN(C2=CC(=O)N(Cc3c(-c4ccc(Cl)cc4)nc4ccccn34)C2)CC1 [Compound 238, 1-((2-(4-chlorophenyl)imidazo[1,2-a]pyridin-3-yl)methyl)-4-(4-methylpiperazin-1-yl)-1H-pyrrol-2(5H)-one]	++ (percentage of inhibition of central BZD site binding is greater than 80% in the presence of 1000 nM of the compound)	10 to 50	10 to 50
CN(C)CCNc1cc(Cc2c(-c3ccc(Cl)cc3)nc3ccccn23)ncn1 [Compound 243, N^1-(6-((2-(4-chlorophenyl)imidazo[1,2-a]pyridin-3-yl)methyl)pyrimidin-4-yl)-N^2,N^2-dimethylethane-1,2-diamine]	++ (percentage of inhibition of central BZD site binding is greater than 80% in the presence of 1000 nM of the compound)	10 to 50	10 to 50
